According to patent US11351164B2, “Inhibitors of indoleamine 2,3-dioxygenase and methods of their use” (BRISTOL-MYERS SQUIBB COMPANY, priority 2016, dated 2022):

What follows are molecules tested against T1, human IDO1 (Homo sapiens, UniProt P14902) (assay: IDO inhibition assay in HEK293 cells stably expressing human IDO1 (kynurenine, Ehrlich reagent, absorbance 490 nm)). Settings: 20 hours incubation, read-out: IDO1 HEK Human IC50.
T1 construct: expressed in transfected cells
Assay type: cell-based
Procedure: HEK293 cells were transfected with a pCDNA-based mammalian expression vector harboring human IDO1 cDNA (NM 002164.2) by electroporation. They were cultured in medium (DMEM with 10% FBS) containing 1 mg/ml G418 for two weeks. Clones of HEK293 cells that stably expressed human IDO1 protein were selected and expanded for IDO inhibition assay. The human IDO1/HEK293 cells were seeded at 10,000 cells per 50 μL per well with RPMI/phenol red free media contains 10% FBS in a 384-well black wall clear bottom tissue culture plate (Matrix Technologies LLC) 100 nL of certain concentration of compound was then added to each well using ECHO liquid handling systems. The cells were incubated for 20 hours in 37° C. incubator with 5% CO2. The compound treatments were stopped by adding trichloroacetic acid (Sigma-Aldrich) to a final concentration at 0.2%. The cell plate was further incubated at 50° C. for 30 minute. The equal volume supernatant ([…]) and 0.2% (w/v) Ehrlich reagent (4-dimethylaminobenzaldehyde, Sigma-Aldrich) in glacial acetic acid were mixed in a new clear bottom 384-well plate. This plate was then incubated at room temperature for 30 minute. The absorbance at 490 nm was measured on Envision plate reader. Compound IC50 values were calculated using the counts of 500 nM of a reference standard treatment as one hundred percent inhibition, and counts of no compound but DMSO treatment as zero percent inhibition.

T1 sequence (P14902 whole entry): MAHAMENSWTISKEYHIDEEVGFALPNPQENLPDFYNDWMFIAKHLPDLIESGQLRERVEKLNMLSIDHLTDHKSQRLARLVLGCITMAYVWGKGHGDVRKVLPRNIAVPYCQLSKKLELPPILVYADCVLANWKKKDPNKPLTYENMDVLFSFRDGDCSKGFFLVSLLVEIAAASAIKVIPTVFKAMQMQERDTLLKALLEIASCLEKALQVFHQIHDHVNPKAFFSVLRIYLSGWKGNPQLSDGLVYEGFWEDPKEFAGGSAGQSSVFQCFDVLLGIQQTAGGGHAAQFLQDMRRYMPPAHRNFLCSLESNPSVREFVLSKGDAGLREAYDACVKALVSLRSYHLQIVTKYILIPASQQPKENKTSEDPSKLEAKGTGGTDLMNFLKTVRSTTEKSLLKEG

Row | SMILES | IC50 [nM]
1 | C[C@@H](Nc1nnc(C2CC2)o1)[C@H]1CC[C@@H](c2ccnc3ccc(F)cc32)CC1 [Example 28, 5-cyclopropyl-N-((R)-1-((1s,4S)-4-(6-fluoroquinolin-4-yl)cyclohexyl)ethyl)-1,3,4-oxadiazol-2-amine] | 37.1
2 | C[C@@H](c1nnc(Nc2ccc(F)cc2)s1)[C@H]1CC[C@@H](c2ccnc3ccc(F)cc32)CC1 [Example 7, N-(4-Fluorophenyl)-5-((R)-1-((1s,4S)-4-(6-fluoroquinolin-4-yl)cyclohexyl)ethyl)-1,3,4-thiadiazol-2-amine] | 543
3 | C[C@@H](c1nnc(-c2ccc(F)c(Cl)c2)o1)[C@H]1CC[C@@H](c2ccnc3ccc(F)cc32)CC1 [Example 17, 2-(3-chloro-4-fluorophenyl)-((R)-1-((1s,4S)-4-(6-fluoroquinolin-4-yl)cyclohexyl)ethyl)-1,3,4-oxadiazole] | 239
4 | CCC(c1nnc(-c2ccc(OC(C)C)cc2)o1)C1CCC(c2ccnc3ccc(F)cc23)CC1 (stereo not shown) [Example 54, 2-(1-(4-(6-Fluoroquinolin-4-yl)cyclohexyl)propyl)-5-(4-isopropoxyphenyl)-1,3,4-oxadiazole] | 68.8
5 | COc1ccc(-c2csc(N[C@H](C)[C@H]3CC[C@@H](c4ccnc5ccc(F)cc54)CC3)n2)cc1 [Example 36, N—((R)-1-((1s,4S)-4-(6-Fluoroquinolin-4-yl)cyclohexyl)ethyl)-4-(4-methoxyphenyl)thiazol-2-amine] | 729
6 | CCC(Nc1nnc(-c2ccc(OC)cc2)o1)[C@H]1CC[C@@H](c2ccnc3ccc(F)cc32)CC1 (mixture of isomers) [Example 48, N-(1-((1s,4s)-4-(6-Fluoroquinolin-4-yl)cyclohexyl)propyl)-5-(4-methoxyphenyl)-1,3,4-oxadiazol-2-amine] | 3.6
7 | COc1ccc(-c2nnc(N[C@H](C)[C@H]3CC[C@@H](c4ccnc5ccc(F)cc54)CC3)s2)cc1 [Example 26, N—((R)-1-((1s,4S)-4-(6-Fluoroquinolin-4-yl)cyclohexyl)ethyl)-5-(4-methoxyphenyl)-1,3,4-thiadiazol-2-amine] | 61.9
8 | CCOCC(Nc1nnc(-c2ccc(OC)cc2)o1)[C@H]1CC[C@@H](c2ccnc(F)c2C)CC1 (single isomer, unassigned) [Example 57-2, N-(2-Ethoxy-1-((1s,4s)-4-(2-fluoro-3-methylpyridin-4-yl)cyclohexyl)ethyl)-5-(4-methoxyphenyl)-1,3,4-oxadiazol-2-amine] | 330
9 | Cc1ccc(-c2nnc([C@H](C)[C@H]3CC[C@@H](c4ccnc5ccc(F)cc54)CC3)[nH]2)cc1 [Example 15, 6-fluoro-4-((1S,4s)-4-((R)-1-(5-p-tolyl-4H-1,2,4-triazol-3-yl)ethyl)cyclohexyl)quinoline] | 124
10 | C[C@@H](Nc1nnc(-c2ccc(-c3nccs3)cc2)o1)[C@H]1CC[C@@H](c2ccnc3ccc(F)cc32)CC1 [Example 35, N-((R)-1-((1s,4S)-4-(6-fluoroquinolin-4-yl)cyclohexyl)ethyl)-5-(4-(thiazol-2-yl)phenyl)-1,3,4-oxadiazol-2-amine] | 1000
11 | C[C@@H](c1ncc(-c2ccc(F)cc2)o1)[C@H]1CC[C@@H](c2ccnc3ccc(F)cc32)CC1 [Example 45, 5-(4-Fluorophenyl)-2-((R)-1-((1s,4S)-4-(6-fluoroquinolin-4-yl)cyclohexyl)ethyl)oxazole] | 182
12 | CCC(c1nnc(-c2ccc(OC(C)C)cc2)[nH]1)C1CCC(c2ccnc3ccc(F)cc23)CC1 (stereo not shown) [Example 51, 6-Fluoro-4-(4-(1-(5-(4-isopropoxyphenyl)-4H-1,2,4-triazol-3-yl)propyl)cyclohexyl)quinoline] | 71.1
13 | COc1ccc(-c2nnc(N[C@H](C)[C@H]3CC[C@@H](c4ccnc5ccc(F)cc54)CC3)o2)cc1 [Example 25, N—((R)-1-((1s,4S)-4-(6-Fluoroquinolin-4-yl)cyclohexyl)ethyl)-5-(4-methoxyphenyl)-1,3,4-oxadiazol-2-amine] | 9.6
14 | C[C@@H](c1ncc(-c2ccc(Cl)cc2)o1)[C@H]1CC[C@@H](c2ccnc3ccc(F)cc32)CC1 [Example 43, 5-(4-Chlorophenyl)-2-((R)-1-((1s,4S)-4-(6-fluoroquinolin-4-yl)cyclohexyl)ethyl)oxazole] | 288

Continued by falling IC50, values first:

Row | IC50 [nM] | SMILES
15 | 2000 | Cc1ccc(-c2nnc([C@H](C)[C@H]3CC[C@@H](c4ccnc5ccc(F)cc54)CC3)o2)cc1F [Example 16, 2-(3-fluoro-4-methylphenyl)-5-((R)-1-((1s,4S)-4-(6-fluoroquinolin-4-yl)cyclohexyl)ethyl)-1,3,4-oxadiazole]
16 | 2000 | CCC(c1nnc(Nc2ccc(OC)cc2)[nH]1)C1CCC(c2ccnc3ccc(F)cc23)CC1 (single isomer, unassigned) [Example 55, 5-(1-(4-(6-Fluoroquinolin-4-yl)cyclohexyl)propyl)-N-(4-methoxyphenyl)-4H-1,2,4-triazol-3-amine]
17 | 858 | C[C@@H](Nc1nc(-c2ccc(Cl)cc2)cs1)[C@H]1CC[C@@H](c2ccnc3ccc(F)cc32)CC1 [Example 37, 4-(4-Chlorophenyl)-N—((R)-1-((1s,4S)-4-(6-fluoroquinolin-4-yl)cyclohexyl)ethyl)thiazol-2-amine]
18 | 811 | CCC(Nc1nnc(-c2ccc(F)cc2)o1)C1CCC(c2ccnc3ccc(C(F)(F)F)cc23)CC1 (single isomer, unassigned) [Example 61, 5-(4-fluorophenyl)-N-(1-((1s,4s)-4-(6-(trifluoromethyl)quinolin-4-yl)cyclohexyl)propyl)-1,3,4-oxadiazol-2-amine]
19 | 386 | C[C@@H](c1ncc(-c2ccc(C#N)cc2)o1)[C@H]1CC[C@@H](c2ccnc3ccc(F)cc32)CC1 [Example 46, 4-(2-((R)-1-((1s,4S)-4-(6-Fluoroquinolin-4-yl)cyclohexyl)ethyl)oxazol-5-yl)benzonitrile]
20 | 192 | COc1ccc(-c2nnc([C@H](C)[C@H]3CC[C@@H](c4ccnc5ccc(F)cc54)CC3)[nH]2)cc1 [Example 9]
21 | 167 | C[C@@H](c1nnc(-c2ccc(Cl)cc2)o1)[C@H]1CC[C@@H](c2ccnc3ccc(F)cc32)CC1 [Example 4, 2-(4-Chlorophenyl)-5-((R)-1-((1s,4s)-4-(6-fluoroquinolin-4-yl)cyclohexyl)ethyl)-1,3,4-oxadiazole]
22 | 144 | CCC(c1nnc(-c2ccc(OC(C)C)cc2)[nH]1)C1CCC(c2ccnc3ccc(F)cc23)CC1 (stereo not shown) [Example 53, 6-Fluoro-4-(4-(1-(5-(4-isopropoxyphenyl)-4H-1,2,4-triazol-3-yl)propyl)cyclohexyl)quinoline]
23 | 135 | COc1ccc(Nc2nnc([C@H](C)[C@H]3CC[C@@H](c4ccnc5ccc(F)cc54)CC3)[nH]2)cc1 [Example 20, 5-((R)-1-((1s,4s)-4-(6-Fluoroquinolin-4-yl)cyclohexyl)ethyl)-N-(4-methoxyphenyl)-4H-1,2,4-triazol-3-amine]
24 | 126 | C[C@@H](Nc1nnc(-c2ccc(Cl)cc2)[nH]1)[C@H]1CC[C@@H](c2ccnc3ccc(F)cc32)CC1 [Example 40, 5-(4-Chlorophenyl)-N—((R)-1-((1s,4S)-4-(6-fluoroquinolin-4-yl)cyclohexyl)ethyl)-4H-1,2,4-triazol-3-amine]
25 | 122 | CCC(Nc1nnc(-c2ccc(OC)cc2)o1)C1CCC(c2ccnc3ccc(F)cc23)CC1 (stereo not shown) [Example 50, N-(1-((1r,4r)-4-(6-Fluoroquinolin-4-yl)cyclohexyl)propyl)-5-(4-methoxyphenyl)-1,3,4-oxadiazol-2-amine]
26 | 68.2 | C[C@@H](c1nnc(Nc2ccc(F)cc2)[nH]1)[C@H]1CC[C@@H](c2ccnc3ccc(F)cc32)CC1 [Example 21, N-(4-Fluorophenyl)-5-((R)-1-((1s,4s)-4-(6-fluoroquinolin-4-yl)cyclohexyl)ethyl)-4H-1,2,4-triazol-3-amine]
27 | 57.2 | COc1ccc(-c2nnc(N[C@H](C)[C@H]3CC[C@@H](c4ccnc5ccc(F)cc54)CC3)[nH]2)cc1 [Example 42, N—((R)-1-((1s,4S)-4-(6-Fluoroquinolin-4-yl)cyclohexyl)ethyl)-5-(4-methoxyphenyl)-4H-1,2,4-triazol-3-amine]
28 | 45.3 | C[C@@H](Nc1nnc(-c2ccc(Cl)cc2)o1)[C@H]1CC[C@@H](c2ccnc3ccc(F)cc32)CC1 [Example 23, 5-(4-Chlorophenyl)-N—((R)-1-((1s,4S)-4-(6-fluoroquinolin-4-yl)cyclohexyl)ethyl)-1,3,4-oxadiazol-2-amine]
29 | 38.6 | COCc1nnc(N[C@H](C)[C@H]2CC[C@@H](c3ccnc4ccc(F)cc43)CC2)o1 [Example 34, N-((R)-1-((1s,4S)-4-(6-fluoroquinolin-4-yl)cyclohexyl)ethyl)-5-(methoxymethyl)-1,3,4-oxadiazol-2-amine]
30 | 18.3 | C[C@@H](c1ncc(-c2ccc(F)cc2)[nH]1)[C@H]1CC[C@@H](c2ccnc3ccc(F)cc32)CC1 [Example 47, 6-Fluoro-4-((1S,4s)-4-((R)-1-(5-(4-fluorophenyl)-1H-imidazol-2-yl)ethyl)cyclohexyl)quinoline]
31 | 3.5 | Cc1csc(-c2nnc(N[C@H](C)[C@H]3CC[C@@H](c4ccnc5ccc(F)cc54)CC3)o2)n1 [Example 32, N-((R)-1-((1s,4S)-4-(6-fluoroquinolin-4-yl)cyclohexyl)ethyl)-5-(4-methylthiazol-2-yl)-1,3,4-oxadiazol-2-amine]
